Experimental data published in patent publication US7803930B2, “Antisense modulation of apolipoprotein B-expression” (Isis Pharmaceuticals, Inc., priority 2002, dated 2010).
In the oligonucleotide strings, read from the 5' end, every base follows the letter of its sugar. An asterisk marks phosphorothioate; unmarked linkages are phosphodiester. Other units and linkages are bracketed, terminal groups are in braces. A string of capitals states the bases alone. e = 2'-O-(2-methoxyethyl) (MOE); [5mC] = 5-methylcytosine; d = 2'-deoxy (DNA)

System: human apolipoprotein B mRNA
Experiment: Inhibition of human apolipoprotein B mRNA levels in HepG2 cells, quantitative real-time PCR
Assay type: cell-based
Conditions: HepG2 cells; human apolipoprotein B mRNA; oligonucleotides targeting genomic sequence SEQ ID NO 334; averages from two experiments
In short: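 HepG2 cells at 80% confluency were transfected with antisense oligonucleotide using 3.75 μg/mL Lipofectin in Opti-MEM for 4-7 h and harvested 16-24 h after treatment. Apolipoprotein B mRNA was measured by real-time RT-PCR and normalized to GAPDH or RiboGreen total RNA. Percent inhibition came from untreated-control standard curves.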

| Substance | % INHIB |
| --- | --- |
| 301049 (eT*e[5mC]*eT*eG*eT*dA*dA*dG*dA*d[5mC]*dA*dG*dG*dA*dG*eA*eA*eA*eG*eA; antisense) [compound 301049] | 41% |
| 301050 (eA*eT*eT*eT*e[5mC]*d[5mC]*dT*d[5mC]*dT*dT*d[5mC]*dT*dG*dT*dA*eA*eG*eA*e[5mC]*eA; antisense) [compound 301050] | 22% |
| 301051 (eG*eA*eT*eG*e[5mC]*d[5mC]*dT*dT*dA*d[5mC]*dT*dT*dG*dG*dA*e[5mC]*eA*eG*eA*e[5mC]; antisense) [compound 301051] | 27% |
| 301052 (eA*eG*eA*eA*eA*dT*dA*dG*d[5mC]*dT*d[5mC]*dT*d[5mC]*d[5mC]*d[5mC]*eA*eA*eG*eG*eA; antisense) [compound 301052] | 13% |
| 301053 (eG*eT*e[5mC]*eG*e[5mC]*dA*dT*d[5mC]*dT*dT*d[5mC]*dT*dA*dA*d[5mC]*eG*eT*eG*eG*eG; antisense) [compound 301053] | 45% |
| 301054 (eT*e[5mC]*e[5mC]*eT*e[5mC]*d[5mC]*dA*dT*dA*d[5mC]*d[5mC]*dT*dT*dG*d[5mC]*eA*eG*eT*eT*eG; antisense) [compound 301054] | 0% |
| 301055 (eT*eG*eG*e[5mC]*eT*d[5mC]*dA*dT*dG*dT*d[5mC]*dT*dA*d[5mC]*d[5mC]*eA*eT*eA*eT*eT; antisense) [compound 301055] | 49% |
| 301056 (e[5mC]*eA*eG*eT*eT*dG*dA*dA*dA*dT*dG*d[5mC]*dA*dG*d[5mC]*eT*eA*eA*eT*eG; antisense) [compound 301056] | 35% |
| 301057 (eT*eG*e[5mC]*eA*eG*dA*d[5mC]*dT*dA*dG*dG*dA*dG*dT*dG*eA*eA*eA*eG*eT; antisense) [compound 301057] | 30% |
| 301058 (eA*eG*eG*eA*eG*dG*dA*dT*dG*dT*d[5mC]*d[5mC]*dT*dT*dT*eT*eA*eT*eT*eG; antisense) [compound 301058] | 27% |
| 301059 (eA*eT*e[5mC]*eA*eG*dA*dG*d[5mC]*dA*d[5mC]*d[5mC]*dA*dA*dA*dG*eG*eG*eA*eA*eT; antisense) [compound 301059] | 12% |
| 301060 (e[5mC]*e[5mC]*eA*eG*e[5mC]*dT*d[5mC]*dA*dA*d[5mC]*d[5mC]*dT*dG*dA*dG*eA*eA*eT*eT*e[5mC]; antisense) [compound 301060] | 17% |
| 301061 (e[5mC]*eA*eT*eG*eA*d[5mC]*dT*dT*dA*d[5mC]*d[5mC]*dT*dG*dG*dA*e[5mC]*eA*eT*eG*eG; antisense) [compound 301061] | 52% |
| 301062 (e[5mC]*e[5mC]*eT*e[5mC]*eA*dG*d[5mC]*dG*dG*dA*d[5mC]*dA*d[5mC]*dA*d[5mC]*eA*e[5mC]*eA*e[5mC]*eA; antisense) [compound 301062] | 21% |
| 301063 (eG*eT*e[5mC]*eA*e[5mC]*dA*dT*d[5mC]*d[5mC]*dG*dT*dG*d[5mC]*d[5mC]*dT*eG*eG*eT*eG*e[5mC]; antisense) [compound 301063] | 41% |
| 301064 (e[5mC]*eA*eG*eT*eG*d[5mC]*d[5mC]*dT*d[5mC]*dT*dG*dG*dG*dA*d[5mC]*e[5mC]*e[5mC]*e[5mC]*eA*e[5mC]; antisense) [compound 301064] | 60% |
| 301065 (eA*eG*e[5mC]*eT*eG*d[5mC]*dA*dG*dT*dG*dG*d[5mC]*d[5mC]*dG*dA*eT*e[5mC]*eA*eG*e[5mC]; antisense) [compound 301065] | 50% |
| 301066 (eG*eA*e[5mC]*e[5mC]*eT*d[5mC]*d[5mC]*d[5mC]*d[5mC]*dA*dG*d[5mC]*d[5mC]*dA*d[5mC]*eG*eT*eG*eG*eA; antisense) [compound 301066] | 61% |
| 301067 (eT*e[5mC]*eT*eG*eA*dT*d[5mC]*dA*d[5mC]*d[5mC]*dA*dT*dA*d[5mC]*dA*eT*eT*eA*e[5mC]*eA; antisense) [compound 301067] | 45% |
| 301068 (eA*eT*eT*eT*e[5mC]*d[5mC]*d[5mC]*dA*d[5mC]*dT*dG*dG*dG*dT*dA*e[5mC]*eT*e[5mC]*eT*e[5mC]; antisense) [compound 301068] | 44% |
| 301069 (eG*eG*e[5mC]*eT*eG*dA*dA*dG*d[5mC]*d[5mC]*d[5mC]*dA*dT*dG*d[5mC]*eT*eG*eA*e[5mC]*eT; antisense) [compound 301069] | 44% |
| 301070 (eG*eT*eT*eG*eG*dA*d[5mC]*dA*dG*dT*d[5mC]*dA*dT*dT*d[5mC]*eT*eT*eT*eT*eG; antisense) [compound 301070] | 38% |
| 301071 (e[5mC]*eA*e[5mC]*eT*eT*dG*dT*dT*dG*dG*dA*d[5mC]*dA*dG*dT*e[5mC]*eA*eT*eT*e[5mC]; antisense) [compound 301071] | 48% |
| 301072 (eA*eT*eT*eT*eT*dA*dA*dA*dT*dT*dA*d[5mC]*dA*dG*dT*eA*eG*eA*eT*eA; antisense) [compound 301072] | 43% |
| 301073 (e[5mC]*eT*eG*eT*eT*d[5mC]*dT*d[5mC]*d[5mC]*dA*d[5mC]*d[5mC]*d[5mC]*dA*dT*eA*eT*e[5mC]*eA*eG; antisense) [compound 301073] | 37% |

| Substance | % INHIB |
| --- | --- |
| 301074 (eG*eA*eG*e[5mC]*eT*d[5mC]*dA*dT*dA*d[5mC]*d[5mC]*dT*dG*dT*d[5mC]*e[5mC]*e[5mC]*eA*eG*eA; antisense) [compound 301074] | 75% |
| 301075 (eT*eT*e[5mC]*eA*eA*dG*dG*dG*d[5mC]*d[5mC]*dA*d[5mC]*dT*dG*d[5mC]*eT*eA*eT*e[5mC]*eA; antisense) [compound 301075] | 52% |
| 301076 (e[5mC]*e[5mC]*eA*eG*eT*dA*dT*dT*dT*d[5mC]*dA*d[5mC]*dG*d[5mC]*d[5mC]*eA*eA*eT*e[5mC]*e[5mC]; antisense) [compound 301076] | 36% |
| 301077 (eG*eG*e[5mC]*eA*eG*dG*dA*dG*dG*dA*dA*d[5mC]*d[5mC]*dT*d[5mC]*eG*eG*eG*e[5mC]*eA; antisense) [compound 301077] | 55% |
| 301078 (eT*eT*eT*eT*eA*dA*dA*dA*dT*dT*dA*dG*dA*d[5mC]*d[5mC]*e[5mC]*eA*eA*e[5mC]*e[5mC]; antisense) [compound 301078] | 22% |
| 301079 (eT*eG*eA*e[5mC]*eT*dG*dT*dT*dT*dT*dA*dA*dA*dA*dT*eT*eA*eG*eA*e[5mC]; antisense) [compound 301079] | 20% |
| 301080 (e[5mC]*e[5mC]*e[5mC]*eA*eG*d[5mC]*dA*dA*dA*d[5mC]*dA*d[5mC]*dA*dG*dG*eT*eG*eA*eA*eG; antisense) [compound 301080] | 25% |
| 301081 (eG*eA*eG*eT*eG*dT*dG*dG*dT*d[5mC]*dT*dT*dG*d[5mC]*dT*eA*eG*eT*eG*e[5mC]; antisense) [compound 301081] | 46% |
| 301082 (antisense e[5mC]*eT*eA*eT*eG*d[5mC]*dA*dG*dA*dG*dT*dG*dT*dG*dG*eT*e[5mC]*eT*eT*eG) [compound 301082] | 41% |
| 301083 (antisense eA*eG*eA*eA*eG*dA*dT*dG*d[5mC]*dA*dA*d[5mC]*d[5mC]*dA*d[5mC]*eA*eT*eG*eT*eA) [compound 301083] | 29% |
| 301084 (antisense eA*e[5mC]*eA*e[5mC]*eG*dG*dT*dA*dT*d[5mC]*d[5mC]*dT*dA*dT*dG*eG*eA*eG*eG*eA) [compound 301084] | 49% |
| 301085 (antisense eT*eG*eG*eG*eA*d[5mC]*dT*dT*dA*d[5mC]*d[5mC]*dA*dT*dG*d[5mC]*e[5mC]*eT*eT*eT*eG) [compound 301085] | 11% |
| 301086 (antisense eG*eG*eT*eT*eT*dT*dG*d[5mC]*dT*dG*d[5mC]*d[5mC]*d[5mC]*dT*dA*e[5mC]*eA*eT*e[5mC]*e[5mC]) [compound 301086] | 30% |
| 301087 (antisense eA*e[5mC]*eA*eA*eG*dG*dA*dG*dT*d[5mC]*d[5mC]*dT*dT*dG*dT*eG*e[5mC]*eA*eG*eA) [compound 301087] | 40% |
| 301088 (antisense eA*eT*eG*eT*eT*d[5mC]*dA*d[5mC]*dT*dG*dA*dG*dA*d[5mC]*dA*eG*eG*e[5mC]*eT*eG) [compound 301088] | 41% |
| 301089 (antisense eG*eA*eA*eG*eG*dT*d[5mC]*d[5mC]*dA*dT*dG*dG*dT*dT*d[5mC]*eA*eT*e[5mC]*eT*eG) [compound 301089] | 0% |
| 301090 (antisense eA*eT*eT*eA*eG*dA*d[5mC]*dT*dG*dG*dA*dA*dG*d[5mC]*dA*eT*e[5mC]*e[5mC]*eT*eG) [compound 301090] | 39% |
| 301091 (antisense eG*eA*eG*eA*eT*dT*dG*dG*dA*dG*dA*d[5mC]*dG*dA*dG*e[5mC]*eA*eT*eT*eT) [compound 301091] | 35% |
| 301092 (antisense e[5mC]*eA*eT*eG*eA*d[5mC]*d[5mC]*dT*dA*d[5mC]*dT*dT*dG*dT*dA*eG*eG*eA*eG*eA) [compound 301092] | 22% |
| 301093 (antisense eT*eG*eG*eA*eT*dT*dT*dG*dG*dA*dT*dA*d[5mC]*dA*d[5mC]*eA*eA*eG*eT*eT) [compound 301093] | 42% |
| 301094 (antisense eA*e[5mC]*eT*e[5mC]*eA*dA*dT*dA*dT*dA*dT*dA*dT*dT*d[5mC]*eA*eT*eT*eG*eA) [compound 301094] | 22% |
| 301095 (antisense e[5mC]*eA*eA*eG*eG*dA*dA*dG*d[5mC]*dA*d[5mC]*dA*d[5mC]*d[5mC]*dA*eT*eG*eT*e[5mC]*eA) [compound 301095] | 38% |
| 301096 (antisense eA*eT*eA*e[5mC]*eT*dT*dA*dT*dT*d[5mC]*d[5mC]*dT*dG*dG*dT*eA*eA*e[5mC]*e[5mC]*eA) [compound 301096] | 24% |
| 301097 (antisense eG*eG*eT*eA*eG*d[5mC]*d[5mC]*dA*dG*dA*dA*d[5mC]*dA*d[5mC]*d[5mC]*eA*eG*eT*eG*eT) [compound 301097] | 50% |
